From PubChem BioAssay (NCI)
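Assay format: 96-well plates, 48-hour exposure. Here, GI50 denotes the concentration required for 50% inhibition of growth. TGI: concentration producing complete growth inhibition.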

What was measured:
Assay in all cases: NCI anticancer screen, dose series, 48 h
NCI-H522 lung = tested on: NCI-H522 lung
NCI-H226 lung = tested on: NCI-H226 lung
HS 578T breast = tested on: HS 578T breast
SNB-75 CNS = tested on: SNB-75 CNS
MALME-3M melanoma = tested on: MALME-3M melanoma
OVCAR-3 ovarian = tested on: OVCAR-3 ovarian
TK-10 renal = tested on: TK-10 renal
COLO 205 colon = tested on: COLO 205 colon
MDA-MB-231 breast = tested on: MDA-MB-231 breast
SK-MEL-2 melanoma = tested on: SK-MEL-2 melanoma
OVCAR-5 ovarian = tested on: OVCAR-5 ovarian
SK-OV-3 ovarian = tested on: SK-OV-3 ovarian
HOP-92 NSCLC = tested on: HOP-92 NSCLC
UACC-257 melanoma = tested on: UACC-257 melanoma
EKVX NSCLC = tested on: EKVX NSCLC
SF-295 CNS = tested on: SF-295 CNS
SK-MEL-28 melanoma = tested on: SK-MEL-28 melanoma
T-47D breast = tested on: T-47D breast
OVCAR-4 ovarian = tested on: OVCAR-4 ovarian
U251 CNS = tested on: U251 CNS
HCT-116 colon = tested on: HCT-116 colon
HOP-62 NSCLC = tested on: HOP-62 NSCLC
NCI-H460 lung = tested on: NCI-H460 lung
UACC-62 melanoma = tested on: UACC-62 melanoma
NCI/ADR-RES ovarian = tested on: NCI/ADR-RES ovarian
HT29 colon = tested on: HT29 colon
SF-268 CNS = tested on: SF-268 CNS
HCT-15 colon = tested on: HCT-15 colon
ACHN renal = tested on: ACHN renal
SW-620 colon = tested on: SW-620 colon
A549 NSCLC = tested on: A549 NSCLC
HCC-2998 colon = tested on: HCC-2998 colon
M14 melanoma = tested on: M14 melanoma
DU-145 prostate = tested on: DU-145 prostate
SN12C renal = tested on: SN12C renal
A498 renal = tested on: A498 renal
MOLT-4 leukemia = tested on: MOLT-4 leukemia
SF-539 CNS = tested on: SF-539 CNS
CAKI-1 renal = tested on: CAKI-1 renal
MCF7 breast = tested on: MCF7 breast
IGROV1 ovarian = tested on: IGROV1 ovarian
PC-3 prostate = tested on: PC-3 prostate
OVCAR-8 ovarian = tested on: OVCAR-8 ovarian
SNB-19 CNS = tested on: SNB-19 CNS
K-562 leukemia = tested on: K-562 leukemia
MDA-MB-435 = tested on: MDA-MB-435
LOX IMVI melanoma = tested on: LOX IMVI melanoma
UO-31 renal = tested on: UO-31 renal
BT-549 breast = tested on: BT-549 breast
HL-60(TB) leukemia = tested on: HL-60(TB) leukemia
786-0 renal = tested on: 786-0 renal
CCRF-CEM leukemia = tested on: CCRF-CEM leukemia
SK-MEL-5 melanoma = tested on: SK-MEL-5 melanoma
RPMI-8226 leukemia = tested on: RPMI-8226 leukemia
NCI-H23 lung = tested on: NCI-H23 lung
KM12 colon = tested on: KM12 colon
RXF 393 renal = tested on: RXF 393 renal

What does the source list for `COc1cc(/C=C/C(=O)c2ccc(O)c(OC)c2)ccc1O`?
TGI (NCI-H522 lung): 32.3 µM; TGI (NCI-H226 lung): 46.3 µM; TGI (HS 578T breast): 60.3 µM; TGI (SNB-75 CNS): 77.5 µM; TGI (MALME-3M melanoma): 51.4 µM; TGI (OVCAR-3 ovarian): 72 µM; TGI (TK-10 renal): 87.9 µM; TGI (COLO 205 colon): 41.2 µM; TGI (MDA-MB-231 breast): 79.4 µM; TGI (SK-MEL-2 melanoma): 42.6 µM; TGI (OVCAR-5 ovarian): 50.8 µM; TGI (SK-OV-3 ovarian): 93.4 µM; TGI (HOP-92 NSCLC): 50.7 µM; TGI (UACC-257 melanoma): 45.9 µM; TGI (EKVX NSCLC): 41.6 µM; TGI (SF-295 CNS): 49 µM; TGI (SK-MEL-28 melanoma): 36.5 µM; TGI (T-47D breast): 58.7 µM; TGI (OVCAR-4 ovarian): 71.4 µM

Which results are given for `Oc1ccc(Nc2ncnc3c2sc2ncccc23)cc1`?
GI50 (U251 CNS): 0.0262 µM; TGI (U251 CNS): > 100 µM; GI50 (HCT-116 colon): < 0.01 µM; TGI (HCT-116 colon): > 100 µM; GI50 (HOP-62 NSCLC): 0.0175 µM; GI50 (NCI-H522 lung): 0.0369 µM; TGI (NCI-H522 lung): > 100 µM; GI50 (NCI-H226 lung): 0.352 µM; TGI (NCI-H226 lung): > 100 µM; GI50 (HS 578T breast): > 100 µM; TGI (HS 578T breast): > 100 µM; GI50 (SNB-75 CNS): 0.0595 µM; TGI (SNB-75 CNS): 7.35 µM; GI50 (NCI-H460 lung): < 0.01 µM; TGI (NCI-H460 lung): > 100 µM; GI50 (UACC-62 melanoma): 0.0379 µM; TGI (UACC-62 melanoma): 46.1 µM; GI50 (NCI/ADR-RES ovarian): 0.0286 µM; TGI (NCI/ADR-RES ovarian): > 35.2 µM; GI50 (HT29 colon): 0.0496 µM; TGI (HT29 colon): > 100 µM; GI50 (SF-268 CNS): 0.0407 µM; TGI (SF-268 CNS): > 100 µM; GI50 (MALME-3M melanoma): 4.93 µM; TGI (MALME-3M melanoma): > 100 µM; GI50 (HCT-15 colon): 0.088 µM; TGI (HCT-15 colon): > 100 µM; GI50 (OVCAR-3 ovarian): 0.397 µM; TGI (OVCAR-3 ovarian): > 100 µM; GI50 (ACHN renal): < 0.01 µM; TGI (ACHN renal): 1.42 µM; GI50 (SW-620 colon): 0.0824 µM; TGI (SW-620 colon): > 100 µM; GI50 (A549 NSCLC): 0.0164 µM; TGI (A549 NSCLC): > 100 µM; GI50 (TK-10 renal): > 100 µM; TGI (TK-10 renal): > 100 µM; GI50 (HCC-2998 colon): > 33.3 µM; TGI (HCC-2998 colon): > 100 µM; GI50 (COLO 205 colon): 0.0726 µM; GI50 (MDA-MB-231 breast): > 100 µM; TGI (MDA-MB-231 breast): > 100 µM; GI50 (SK-MEL-2 melanoma): 27.3 µM; TGI (SK-MEL-2 melanoma): > 100 µM; GI50 (M14 melanoma): 0.012 µM; TGI (M14 melanoma): 0.0551 µM; GI50 (DU-145 prostate): 0.0369 µM; TGI (DU-145 prostate): > 100 µM; GI50 (SN12C renal): 0.244 µM; TGI (SN12C renal): > 100 µM; GI50 (OVCAR-5 ovarian): 0.0831 µM; TGI (OVCAR-5 ovarian): > 100 µM; GI50 (A498 renal): 0.0236 µM; TGI (A498 renal): 1.93 µM; GI50 (MOLT-4 leukemia): 0.0527 µM; TGI (MOLT-4 leukemia): > 45.5 µM; GI50 (SF-539 CNS): 0.0266 µM; TGI (SF-539 CNS): 0.293 µM; GI50 (CAKI-1 renal): < 0.0185 µM; TGI (CAKI-1 renal): 9.21 µM; GI50 (SK-OV-3 ovarian): 0.168 µM; TGI (SK-OV-3 ovarian): > 40.2 µM; GI50 (MCF7 breast): < 0.01 µM; TGI (MCF7 breast): > 100 µM; GI50 (HOP-92 NSCLC): 0.08 µM; TGI (HOP-92 NSCLC): 11.6 µM; GI50 (IGROV1 ovarian): > 23.8 µM; TGI (IGROV1 ovarian): > 100 µM; GI50 (PC-3 prostate): 5.15 µM; TGI (PC-3 prostate): > 100 µM; GI50 (OVCAR-8 ovarian): 0.0261 µM; TGI (OVCAR-8 ovarian): > 30.9 µM; GI50 (SNB-19 CNS): 0.0246 µM; TGI (SNB-19 CNS): > 100 µM; GI50 (K-562 leukemia): 0.36 µM; TGI (K-562 leukemia): > 100 µM; GI50 (MDA-MB-435): 0.0403 µM; TGI (MDA-MB-435): > 100 µM; GI50 (LOX IMVI melanoma): 0.0368 µM; TGI (LOX IMVI melanoma): > 100 µM; GI50 (UO-31 renal): 0.0241 µM; TGI (UO-31 renal): 5.02 µM; GI50 (BT-549 breast): 0.0389 µM; TGI (BT-549 breast): > 100 µM; GI50 (UACC-257 melanoma): 0.0726 µM; TGI (UACC-257 melanoma): > 100 µM; GI50 (EKVX NSCLC): 0.097 µM; TGI (EKVX NSCLC): > 100 µM; GI50 (HL-60(TB) leukemia): 0.0288 µM; TGI (HL-60(TB) leukemia): > 56.5 µM; GI50 (786-0 renal): < 0.01 µM; GI50 (SF-295 CNS): 0.0389 µM; TGI (SF-295 CNS): > 100 µM; GI50 (SK-MEL-28 melanoma): 3.75 µM; TGI (SK-MEL-28 melanoma): > 100 µM; GI50 (CCRF-CEM leukemia): 0.0307 µM; TGI (CCRF-CEM leukemia): > 100 µM; GI50 (SK-MEL-5 melanoma): 0.047 µM; TGI (SK-MEL-5 melanoma): > 100 µM; GI50 (RPMI-8226 leukemia): 0.0485 µM; TGI (RPMI-8226 leukemia): > 100 µM; GI50 (NCI-H23 lung): < 0.01 µM; TGI (NCI-H23 lung): 9.53 µM; GI50 (KM12 colon): 1.73 µM; TGI (KM12 colon): > 100 µM; GI50 (RXF 393 renal): 0.071 µM; TGI (RXF 393 renal): 97 µM; GI50 (OVCAR-4 ovarian): > 88.7 µM; TGI (OVCAR-4 ovarian): > 100 µM
